# Reference: US20220111019A1, “BRCA1 MODULATING COMPOUNDS, FORMULATIONS THEREOF, AND USES THEREOF” (VIRGINIA TECH INTELLECTUAL PROPERTIES, INC., priority 2018, published 2022)
# Entries after “also recorded” stand apart in the source; their conditions may differ.
# Tests used:
# HCC1937 cells [1] = assay: MTS cell growth assay after ML364 treatment (IC50); type: cell-based, human; details: 3 days of incubation, doses 2.5 μM-80 μM, read-out: half maximal inhibitory concentration (IC50) range
# Method: Cell viability and proliferation assays. To determine cellular viability, we used the CellTiter 96® AQueous One Solution Cell Proliferation Assay (MTS; Promega). HCC1937 were seeded (about 4000 cells per well) in a 96-well plate at 37° C. and 5% CO2 overnight. Following a 10-minute incubation with culture media containing 1 mM H2O2, cells were washed with PBS solution and further treated with 7 μM ML364 for 24 hours at 37° C. with 5% CO2. Control cells were cultured in media lacking H2O2 and/or ML364 during the same time period. Culture media and containing MTS reagent was added to each well. The titer plate was incubated 37° C. and 5% CO2 for 1-4 hours. Absorbance values were measured at 490 nm using iMark microplate reader (Bio-Rad). MTS was also used to determine cell growth following ML364 treatment. HCC1937 cells were plated (about 1500 cells per well) in a 96-well plate at 37° C. and 5% CO2 overnight. […] After 3 days of incubation, cell viability was measured using the MTS reagent. Cellular survival was calculated by dividing the absorbance of the treated groups by those of the untreated groups (DMSO). […]
# Targeting cancer cells that express mutated BRCA1. […] The application of this aspect of the techology to treat cancer cells was evaluated. […] The viability of treated cells and untreated cells was quantified using MTS assay measurements.
# HCC1937 cells [2] = assay: MTS cell viability assay after H2O2 and/or ML364 treatment; type: cell-based, human; details: 1 mM H2O2 10 min, vs untreated cells
# Method: Cell viability and proliferation assays. To determine cellular viability, we used the CellTiter 96® AQueous One Solution Cell Proliferation Assay (MTS; Promega). HCC1937 were seeded (about 4000 cells per well) in a 96-well plate at 37° C. and 5% CO2 overnight. Following a 10-minute incubation with culture media containing 1 mM H2O2, cells were washed with PBS solution and further treated with 7 μM ML364 for 24 hours at 37° C. with 5% CO2. Control cells were cultured in media lacking H2O2 and/or ML364 during the same time period. Culture media and containing MTS reagent was added to each well. The titer plate was incubated 37° C. and 5% CO2 for 1-4 hours. Absorbance values were measured at 490 nm using iMark microplate reader (Bio-Rad). MTS was also used to determine cell growth following ML364 treatment. HCC1937 cells were plated (about 1500 cells per well) in a 96-well plate at 37° C. and 5% CO2 overnight. Cells were treated with DMSO and ML364 at the different doses (2.5 μM-80 μM). After 3 days of incubation, cell viability was measured using the MTS reagent. Cellular survival was calculated by dividing the absorbance of the treated groups by those of the untreated groups (DMSO). Values for the half-maximal inhibitory concentration (IC50) were obtained using Prism software package (GraphPad).
# Targeting cancer cells that express mutated BRCA1. As described elsewhere herein, mutated BRCA1 can be fine-tuned in vitro. The application of this aspect of the techology to treat cancer cells was evaluated. Enhancing the activity of tumor suppressors in healthy cells can facilitate their growth and resilience. Conversely, treating cancer cells with drugs that limit DNA repair may lessen their survival. Poly(ADP-Ribose) Polymerase (PARP) inhibitors have been used to treat BRCA1-related cancers (25-28). A limited-repair paradigm approach was developed and used treated breast cancer cells (HCC1937 line) with the DUB inhibitor, ML364 (Axon Ligands™). […] The viability of treated cells and untreated cells was quantified using MTS assay measurements.
# [3] = test system: 8-Oxo-Guanine (8-Oxo-G) accumulation in HCC1937 cells; assay: Immunofluorescence detection of 8-Oxo-Guanine DNA lesions; type: cell-based, human; details: for 8-Oxo-G accumulation in and around the nucleus: single treatment (ML364 in IC50 range or 1 mM H2O2 10 minutes)
# Method: Fluorescence microscopy. The production of 8-Oxo-Guanine (8-Oxo-G) DNA lesions was detected by fluorescence imaging as previously described (10, 11). Briefly, HCC1937 cells (about 40,000 cells/chamber) were plated in an eight-chamber slide and incubated at 37° C. and 5% CO2 overnight. Cells were treated with complete culture media containing 1 mM H2O2 for 10-20 minutes to induce oxidative damage in the nucleus. Cells were then wash with 1× PBS and treated with ML364 (7 μM-9 μM) for up to 48 hours at 37° C. and 5% CO2. Control cells were cultured in media without H2O2 and ML364 during the same time period. Cells were washed with standard PBS solution and fixed with 4% paraformaldehyde (Electron Microscopy Sciences) for 15 minutes. The fixed cells were permiabilized by PBS solution containing 0.5% Triton X-100 (Sigma) for 10 minutes. After 1-hour blocking step with PBS supplemented with 10% normal goat serum (Jackson Immuno Research) and 0.2% Triton X-100, cells were incubated with anti-8-OxoG DNA Lesion (483.15; Santa Cruz Biotechnology) at 4° C. overnight. The 8-OxoG DNA lesions were detected with goat anti-mouse IgM-TR (Santa Cruz Biotechnology) and nuclei were stained with Hoechst 33342. An inverted fluorescence microscope (Zeiss Axio Vert.A1; Carl Zeiss Microscopy) was used to image the cells.
# To determine the effect of ML364 on genomic stability, we performed immunofluorescent imaging on HCC1937 breast cancer cells to detect 8-Oxo-Guanine (8-Oxo-G) (FIG. 13C). The nuclear accumulation of 8-Oxo-G in cells indicates deficiencies in DNA damage repair (10, 11). Cells were treated with H2O2 to induce oxidative DNA damage. The ML364 drug was then administered to the cells in the IC50 range. The accumulation of 8-Oxo-G was detected using monoclonal antibodies against the substrate and fluorescently-labeled secondary antibodies. […] Under oxidative stress conditions, there was a minor degree of 8-Oxo-G detected in nuclear region following 10 minutes of treatment. […]
# mutated BRCA1 = assay: Western blot quantification of BRCA1 in lysates of treated HCC1937 cells; type: cell-based, human; details: HCC1937 cell lysates; for decrease in BRCA1 level: single treatment (ML364 or H2O2)
# Method: (§1) Cell lysate preparations. For whole cell lysate preparations, HCC1937 cells were treated by adding 1 mM H2O2 to the culture media for 10-20 minutes, while incubating cells at 37° C. and 5% CO2. Following each incubation time, cells were washed with 1× PBS (Sigma) to eliminate residual H2O2. The cells were then treated with 7 μM-9 μM ML364 (Axon Medchem) for up to 48 hours at 37° C. and 5% CO2. Control cells were cultured in media lacking H2O2 and/or ML364 during the same time period. Cells were collected and washed with ice-cold 1× PBS once followed by centrifugation at 500×g for 5 minutes. Cell pellets were lysed by resuspending the pellets in buffer solution containing 20 mM HEPES (pH 6.8), 150 mM NaCl, 2.5 mM CaCl2, 2.5 mM MgCl2, 1 mM EDTA, 2% Nonidet-P40 (NP40), 1% Nadeoxycholate, 2× protease inhibitors (Sigma), 1× phosphatase inhibitors (Sigma), and 8% glycerol. The lysis mixture was incubated on ice for 30 minutes and centrifuged at 21,000×g for 15 minutes at 4° C. The supernatants were collected and protein concentrations were quantified using the standard Pierce Bradford assay.
# (§2) SDS-Page, immunoblotting, and densitometry measurements. Protein fractions were also analyzed by SDS-PAGE denaturing gels followed by staining with SimplyBlue SafeStain solution (Invitrogen) or Western blotting as previously described (10). For Western blot analysis, the following primary antibodies were used: BRCA1 (C-20; Santa Cruz Biotechnology, sc-642), ubiquitin-pAb (Enzo Life Sciences, ADI-SPA-200), p53 (DO-1; Santa Cruz Biotechnology, sc-126), K63-linkage specific polyubiquitin (D7A11; Cell Signaling, #5621) and p-actin (Sigma-Aldrich, A5441). Western blot quantification was performed using Image Labrm Software (Bio-Rad). The intensity of each band was selected using the volume tool. Local subtraction and linear regression methods were implemented to eliminate the local background values and to quantify the band intensities.
# p53R306 = assay: Western blot quantification of p53 in lysates of treated HCC1937 cells; type: cell-based, human; details: HCC1937 cell lysates; for decrease in p53 level: single treatment (ML364 or H2O2)
# Method: as §1, §2
# BARD1 = details: HCC70 cells, 1 mM H2O2, replicate experiments
# Method: (§3) Authentication of cells, cell culture, and protein enrichment. Breast cancer cells (HCC70 and HCC1937 lines) used in this study were purchased from the American Type Culture Collection (ATCC) and independently characterized by ATCC as being triple negative primary ductal carcinoma cells. For all experiments, cells were promptly used within 6 months of resuscitation. Cells were cultured in RPMI-1640 (Mediatech) supplemented with 10% fetal bovine serum (ATCC) and 0.5× penicillin-streptomycin (Thermo Fisher) at 37° C. and 5% CO2 environment. BRCA1-BARD1 complexes were enriched as previously described (25). Briefly, about 1,000,000 cells were collected using Trypsin-EDTA (Thermo Fisher) followed by centrifugation (500×g, 5 minutes). For experiments involving hydrogen peroxide (H2O2), cells were collected with cell scrapers after treated with 1 mM of H2O2 (Sigma Aldrich) for 40 minutes at 37° C. and 5% CO2. Sub-cellular fractions (cytoplasmic and nuclear) were separated using the NE-PER kit (Thermo Scientific). The soluble nuclear material was incubated with Ni-NTA agarose beads (Qiagen) and incubated with rotation for 1 hour at 4° C. The beads were washed with five bed volumes of 20 mM HEPES buffer (pH 7.2, 140 mM NaCl, 2 mM CaCl2, 2 mM MgCl2 and 5 mM imidazole).
# BRCA1 = details: HCC70 cells, 1 mM H2O2, replicate experiments
# Method: as §3
# p53 = assay: Ubiquitin ligase assay in T98G nuclear extracts; type: biochemical, human; details: T98G nuclear reaction mixtures, 37° C., 1 hour, vs control samples
# Method: Ubiquitin ligase assay. Aliquots of DUB-treated or “restored” BRCA1-BARD1 (0.2 mg/ml) were incubated with 10 μM ML364 (USP2 inhibitor) at 37° C. for 1 hour to halt USP2 activity. Samples were then stored overnight at 4° C. The restored BRCA1-BARD1 fractions were added in varying amounts to soluble nuclear extracts prepared from T98G cells. T98G cells naturally produced low levels of BRCA1. Control samples lacked restored BRCA1-BARD1. The reaction mixtures were incubated in a water bath at 37° C. for 1 hour.
# Wild-type p53-caught in the act of repair. The extent to which restored BRCA1 could enhance the ubiquitin ligase activity of cells with inherently low levels of BRCA1 (T98G line) (FIGS. 16A-16C) was evaluated. Quantities of restored BRCA1-BARD1 were added to nuclear reaction mixtures prepared from T98G cells, and changes in ubiquitination were assessed over multiple experiments (FIG. 12A). To simplify the results, modifications to the p53 monomer was first evaluated. According to Western blots, full-length p53 migrated at about 50 kDa while ubiquitnated monomers migrated close to about 68 kDa (FIGS. 12B and 16A-16C). Proteins receiving K63-linked ubiquitin adducts are often involved in autophagy and DNA repair (22), (23), (24). […] As the T98G cells naturally produced little BRCA1, we attributed the increase in ubiquitin ligase activity to the restored BRCA1-BARD1 supplement.
Compound,IC50 (HCC1937 cells [1]),"decline in viability, combined treatment (HCC1937 cells [2]; then 7 μM ML364 24 hours)","decrease in viability (HCC1937 cells [2]; ML364 and H2O2 given separately, 7 μM ML364 24 hours)","8-Oxo-G accumulation, combination of H2O2 and ML364 ([3]; 1 mM H2O2 then ML364 in IC50 range, up to 48 hours)",8-Oxo-G accumulation in and around the nucleus [3],"decline in BRCA1 level, combination of H2O2 and ML364 (mutated BRCA1; H2O2 then ML364)",decrease in BRCA1 level (mutated BRCA1),"decline in p53 level, combination of H2O2 and ML364 (p53R306; H2O2 then ML364)",decrease in p53 level (p53R306),"cytotoxicity at 1000 µM (HCC1937 cells [2]; Homo sapiens, ML364 and H2O2 given separately, 7 μM ML364 24 hours, read-out: decrease in viability)",decrease in BARD1 level (BARD1),decrease in BRCA1 level (BRCA1),increase in K63-type ubiquitin adducts on p53 (ubiquitination of p53) (p53)
Cc1ccc(S(=O)(=O)Nc2cc(C(F)(F)F)ccc2C(=O)Nc2nc(-c3ccccc3)cs2)cc1 [ML364],7 to 10 µM,about 70%,about 50%,greatest 8-Oxo-G buildup; also recorded: greatest degree; also recorded: higher level,more abundant; also recorded: higher level,about 50%,about 30%,about 50%,about 30%,–,–,–,–
"OO [H2O2, hydrogen peroxide]",–,–,–,–,minor degree,–,15-20%,–,15-20%,~50%,10-20%,10-20%,–
wild-type BRCA1-BARD1: wild type BRCA1-BARD1 heterodimer used as supplement for comparison,–,–,–,–,–,–,–,–,–,–,–,–,about 24%
